What all share (type): physicochemical
One data set can be described thus: pKa values. The source says:
(§1) Compound I can be produced, for example, by the method described in Example 3 (Compound 7) of WO2014/092061.
In the present invention, the “base” preferably has a pKa value greater than that of Compound I. Since the lower pKa value of Compound I is about 8, the bases that can be used in the present invention desirably have a pKa value that is preferably more than about 9, even more preferably more than about 10, and most preferably more than about 11. Here, the term pKa is used in its conventional form. That is, pKa is the negative logarithm of the ionization constant of the acid. Unless otherwise specified, pKa is assumed to be measured in distilled water at 25° C.

Data set [1] is described as follows: organic solvent solubility. The following applies: for solubility: organic solvent or mixture. Here is the method: as §1
A solvent suitable for solvent treatment may be any compound in which drugs, polymers, and bases are mutually soluble. Preferably, the solvent is also volatile and has a boiling point of 150° C. or lower. Furthermore, the solvent should have relatively low toxicity and should be removed from the solid dispersion to a level that is acceptable according to the guidelines of the International Council for Harmonization of Technical Requirements for Pharmaceuticals for Human Use (ICH). Removal of the solvent to this level may require a subsequent processing step such as tray-drying. Preferred solvents include alcohols such as methanol, ethanol, n-propanol, iso-propanol, and butanol; ketones such as acetone, methyl ethyl ketone, and methyl iso-butyl ketone; esters such as ethyl acetate and propyl acetate; and various other solvents, such as acetonitrile, methylene chloride, toluene, 1,1,1-trichloroethane, and tetrahydrofuran. Low-volatility solvents such as dimethylacetamide or dimethylsulfoxide can also be used in small amounts in mixtures with volatile solvents. A mixture of solvents such as 50% methanol and 50% acetone can also be used in the same manner as a mixture with water. Preferred solvents are ethanol, methanol, acetone, tetrahydrofuran, ethyl acetate, mixtures of these with water, and mixtures thereof. […] In particular, tetrahydrofuran and its mixed liquids can be referred to as preferred solvents.

A short description of data set [2]: solubility in FaSSIF (excess amount, stirring 24 hours or more, centrifugation, HPLC). As to the method: A suitable FaSSIF is, for example, an aqueous solution containing 28.7 mM potassium dihydrogen phosphate (KH2PO4), 103.3 mM KCl, 3 mM sodium taurocholate, and 0.8 mM L-α-phosphatidylcholine, and adjusted to pH 6.5 using NaOH.
Furthermore, for the purpose of evaluating the solubility of the type I crystal of the free form of Compound I in FaSSIF, an excess amount of the type I crystal of the free form of Compound I was placed in FaSSIF, and after soaking and stirring at 37° C. for 24 hours or more, this was subjected to centrifugation. […] In addition, the solubility of the type II crystal of the free form of Compound I evaluated in the same manner was 2 μg/mL.

A further data set can be described thus: water solubility. The following applies: 37° C., pH 6 to 7.
From the text: as §1

A short description of data set [3]: storage stability of crystals.

Values after ≈ are worked out from the molar mass of the structure shown.

Take `Cc1cc(N2C(=O)NC(=O)C2(C)C)cc(C)c1CCS(=O)(=O)N1CCC2(CC1)N=C(c1ccc(OC(F)(F)F)cc1)NC2=O` [Compound I, 1-(3,5-dimethyl-4-(2-((4-oxo-2-(4-(trifluoromethoxy)phenyl)-1,3,8-triazaspiro[4.5]deca-1-en-8-yl)sulfonyl)ethyl)phenyl)-5,5-dimethylimidazolidine-2,4-dione]: in the data set “pKa values”, the pKa values result is listed as “about 8”. In addition, the solubility (as a rule, the dissolved amount per volume that the medium holds) was no less than 50 mg/mL in data set [1] (acetone/water mixture (95:5 v/v), volume ratio 95:5, read-out: solubility in a mixed solution of acetone and water); no less than 80 mg/mL in data set [1] (tetrahydrofuran, room temperature, read-out: solubility in THF (tetrahydrofuran)); no less than 100 mg/mL in data set [1] (tetrahydrofuran/methanol mixture (95:5 v/v), volume ratio 95:5, read-out: solubility in a mixed solution of tetrahydrofuran and methanol).
For `Cc1cc(N2C(=O)NC(=O)C2(C)C)cc(C)c1CCS(=O)(=O)N1CCC2(CC1)N=C(c1ccc(OC(F)(F)F)cc1)NC2=O` [type II crystal of the free form of Compound I], the “solubility in FaSSIF” value in data set [2] (37° C.) is 0.002 mg/mL (≈ 3.15 µM).
Turning to `Cc1cc(N2C(=O)NC(=O)C2(C)C)cc(C)c1CCS(=O)(=O)N1CCC2(CC1)N=C(c1ccc(OC(F)(F)F)cc1)NC2=O`, the pKa (in general, the pH at which an ionisable group is half protonated) in “pKa values” (distilled water) was 8. Moreover, the solubility in data set [2] (FaSSIF, 37 °C, pH 6.5, fassif, thermodynamic from solid) is 0.001 mg/mL (≈ 1.57 µM); in “water solubility”, less than 0.001 mg/mL.
In the case of `Cc1cc(N2C(=O)NC(=O)C2(C)C)cc(C)c1CCS(=O)(=O)N1CCC2(CC1)N=C(c1ccc(OC(F)(F)F)cc1)NC2=O` [type I crystal of the free form of Compound I], in data set [1] (room temperature), the “solubility in THF (tetrahydrofuran)” value is no less than 80 mg/mL. Also, in data set [3], the storage stability entry is “excellent storage stability”.
